A word on the MIC: it is the lowest concentration that inhibits growth of the organism. Low values mean inhibition by little substance, high ones a need for much substance. As a reminder, the IC50 is the midpoint of a concentration-inhibition curve. A word on the MBC: it is the smallest concentration meeting the test's criterion for killing.

The source of these data is paper PMC10812672, “Short Antimicrobial Peptide Derived from the Venom Gland Transcriptome of Pamphobeteus verdolaga Increases Gentamicin Susceptibility of Multidrug-Resistant Klebsiella pneumoniae” (Antibiotics, 2023).

Ends that are not written are not given here.

The subject of one assay is E. coli ATCC® 8739. The assay is classed as cell-based, Escherichia coli. The following applies: CLSI broth microdilution, Mueller-Hinton broth, peptide 30 µM, ~6 × 10^6 CFU/mL, 24 h 37 °C, OD600; triplicate, three independent assays; NA = no activity. The protocol:
(§1) Activity screening was conducted using the broth microdilution method at a fixed peptide concentration of 30 µM against E. coli ATCC® 8739 and 25922, as well as S. aureus ATCC® 6538 and 29213. The bacterial density used for screening was approximately 6 × 10^6 CFU/mL [30]. Peptide activity measurements were conducted in terms of the growth inhibition percentage. No dose-response curves were generated during the screening phase as a resource optimization strategy in the initial activity evaluation. […] For S. aureus ATCC® 6538 and S. aureus ATCC® 29213, growth inhibition ranged from 0% to 140% and 0% to 98%, respectively (Table 1).
(§2) The evaluation of the antimicrobial activity of the peptides was conducted using the CLSI’s broth microdilution method for bacterial susceptibility testing. For the screening phase, peptides were evaluated at a single 30 μM concentration, in triplicate and in three independent assays, against the E. coli ATCC® 8739, E. coli ATCC® 25922, S. aureus ATCC® 6538, or S. aureus ATCC® 29213 reference USP and CLSI strains. For the determination of MIC, MBC, or IC50, peptides or antibiotics were evaluated in concentrations between 1.56–200 µM. These evaluations were conducted in triplicate and in three independent assays, against the E. coli ATCC® 25922, S. aureus ATCC® 29213, E. faecalis ATCC® 49532, P. aeruginosa ATCC® 9027, and K. pneumoniae ATCC® BAA-1705, or the clinically isolated MDR strain. In detail, 1 mL of a glycerol stock solution of the ATCC® or clinically isolated bacterial strain was added to 9 mL of Mueller-Hinton Broth and incubated for 18 h, 180 rpm and 37 °C (Incubator 1000, Heidolph Instruments, Schwabach, Germany). After the incubation, 1 mL of the previous solution was transferred to a new recipient containing 9 mL of fresh Mueller-Hinton broth and incubated for 4 h, 180 rpm and 37 °C (Incubator 1000, Heidolph Instruments, Schwabach, Germany). During the second incubation, the peptides or the antibiotics were dissolved in PBS pH 7.20 in concentrations between 19.53–2500 µM (MC5 Micro Balance, Sartorius AG, Göttingen, Germany). An amount of 10 µL of either peptide or antibiotic was dispensed in triplicate in 96-well flat bottom culture plates, along with 10 µL of PBS (Negative activity control), BTM-P1 (Positive activity control), or 10 µL of Mueller-Hinton broth (Blank); then, 110 µL of Mueller-Hinton broth was poured in all wells. Following this, the bacteria were suspended in Mueller-Hinton broth up to a concentration of approximately 1.50 × 10^8 CFU/mL, as measured by optical density at 600 nm between 0.06 to 0.11 (0.5 McFarland standard), in a Multiskan SkyHigh spectrophotometer (ThermoFisher Scientific, Waltham, MA, USA). Amounts of 5 µL of the 1.50 × 10^8 CFU/mL suspension were added to each well (except for the blank) for a final well concentration of approximately 6 × 10^6 CFU/mL. The plate was incubated for 24 h at 37 °C (BE 500, Memmert GmbH, Büchenbach, Germany) and optical density was measured at 600 nm in a Multiskan SkyHigh spectrophotometer (ThermoFisher Scientific, Waltham, MI, USA). Following the measurement of optical density, plates were visually inspected to determine the MIC. Subsequently, 100 µL of the concentration associated to the MIC and 100 µL of the next higher concentration were added to Petri dishes containing Mueller-Hinton Agar. The dishes were then incubated for 24 h at 37 °C (BE 500, Memmert GmbH, Büchenbach, Germany). After incubation, the Petri dishes were visually inspected, and the MBC was determined in the absence of growth. IC50 values were interpolated from regressions with correlation values above 0.70. Growth inhibition percentages were calculated as follows: Growth inhibition %=1−AbsPEPTIDE or ANTIBIOTIC−Median AbsBLANK/Median AbsPBS−Median AbsBLANK×100
(In broth dilution the organism is exposed to a series of concentrations in liquid medium.)

Assay [1] has as its system E. coli ATCC® 25922. It counts as cell-based, Escherichia coli. Conditions: CLSI broth microdilution, Mueller-Hinton broth, peptide 30 µM, ~6 × 10^6 CFU/mL, 24 h 37 °C, OD600; triplicate, three independent assays; NA = no activity. As for the experimental part: as §1, §2
Another assay concerns S. aureus ATCC® 6538. The assay is classed as cell-based, Staphylococcus aureus. The following applies: CLSI broth microdilution, Mueller-Hinton broth, peptide 30 µM, ~6 × 10^6 CFU/mL, 24 h 37 °C, OD600; triplicate, three independent assays; NA = no activity. The protocol: as §1, §2
The test system of a further assay is S. aureus ATCC® 29213. The assay is classed as cell-based, Staphylococcus aureus. Conditions: CLSI broth microdilution, Mueller-Hinton broth, peptide 30 µM, ~6 × 10^6 CFU/mL, 24 h 37 °C, OD600; triplicate, three independent assays; NA = no activity. The protocol:
as §1, §2

Assay [2] concerns E. coli ATCC® 25922. The assay is classed as cell-based, Escherichia coli. As for the experimental part: (§3) The nine AMPs identified in the initial screening were evaluated at concentrations between 1.56–200 µM, against E. coli ATCC® 25922, S. aureus ATCC® 29213, E. faecalis ATCC® 49532, P. aeruginosa ATCC® 9027, and K. pneumoniae ATCC® BAA-1705 (Supplementary Figures S2–S6). […] Only PvAMP66 and PvAMP172 reached the MBC for S. aureus at 50 µM and 100 µM, respectively (Table 2).
as §2

The subject of the next assay is P. aeruginosa ATCC® 9027. It counts as cell-based, Pseudomonas aeruginosa. As for the experimental part: as §3, §2
Assay [3] deals with K. pneumoniae ATCC® BAA-1705. The assay is classed as cell-based, Klebsiella pneumoniae. As for the experimental part: as §3
The evaluation of the antimicrobial activity of the peptides was conducted using the CLSI’s broth microdilution method for bacterial susceptibility testing. For the screening phase, peptides were evaluated at a single 30 μM concentration, in triplicate and in three independent assays, against the E. coli ATCC® 8739, E. coli ATCC® 25922, S. aureus ATCC® 6538, or S. aureus ATCC® 29213 reference USP and CLSI strains. […] Following this, the bacteria were suspended in Mueller-Hinton broth up to a concentration of approximately 1.50 × 10^8 CFU/mL, as measured by optical density at 600 nm between 0.06 to 0.11 (0.5 McFarland standard), in a Multiskan SkyHigh spectrophotometer (ThermoFisher Scientific, Waltham, MA, USA). […] The plate was incubated for 24 h at 37 °C (BE 500, Memmert GmbH, Büchenbach, Germany) and optical density was measured at 600 nm in a Multiskan SkyHigh spectrophotometer (ThermoFisher Scientific, Waltham, MI, USA). […]

Setting [4] is: 1.56–200 µM, 24 h 37 °C, visual inspection, triplicate, three independent assays.
The mark [5] stands for this setting: growth inhibition OD600, 95% confidence interval in parentheses.

On to WKKIKKFF-NH2 [PvAMP66], for which, in the assay with E. coli ATCC® 8739, the “E. coli ATCC® 8739 (Inhibition %)” value amounted to 88.81 ± 18.15 %. Moreover, the “E. coli ATCC® 25922 (Inhibition %)” value in the assay on E. coli ATCC® 25922 [1] turned out to be 73.59 ± 21.83 %. Besides, in the assay on S. aureus ATCC® 6538, the “S. aureus ATCC® 6538 (Inhibition %)” value came to 139.72 ± 1.90 %. Further, in the assay on S. aureus ATCC® 29213, the “S. aureus ATCC® 29213 (Inhibition %)” value is on record as 98.25 ± 0.39 %. The MIC against E. coli ATCC® 25922 [2] (setting [4]) worked out at 50 µM; with P. aeruginosa ATCC® 9027 (setting [4]), 12.5 µM; in assay [3] (1.56–200 µM, 24 h 37 °C, visual inspection), 100 µM. Also, the IC50 in the assay with E. coli ATCC® 25922 [2] (growth inhibition OD600, interpolated from regression, 95% confidence interval in parentheses, read-out: IC50) was 38.3 µM; with P. aeruginosa ATCC® 9027 (setting [5]) it was 12.7 µM; in assay [3] (setting [5]), 45.5 µM. Also, the minimum bactericidal concentration (MBC) stood at 50 µM with E. coli ATCC® 25922 [2] (plating on Mueller-Hinton agar, 24 h 37 °C, absence of growth) and 12.5 µM against P. aeruginosa ATCC® 9027 (plating on Mueller-Hinton agar, absence of growth).
